In ChEMBL document CHEMBL1150278, “Thiocamptothecin” (J Med Chem, 2008):
Activity calls are given as the source filed them. No cut-off for these calls is given here.

Tests used:
NCI-H460 [1] = test: Cytotoxicity against human H460 cells after 72 hrs; assay type: functional, cell-based; details: NCI-H460, 72 h
IGROV-1 [2] = test: Cytotoxicity against human IGROV1 cells after 1 hr; assay type: functional, cell-based; details: IGROV-1, 1 h
IGROV-1 [3] = test: Cytotoxicity against human IGROV1 cells after 72 hrs; assay type: functional, cell-based; details: IGROV-1, 72 h
NCI-H460 [4] = test: Cytotoxicity against human H460 cells after 1 hr; assay type: functional, cell-based; details: NCI-H460, 1 h
HT-29 [5] = test: Cytotoxicity against human HT29 cells after 1 hr; assay type: functional, cell-based; details: HT-29, 1 h
HT-29 [6] = test: Cytotoxicity against human mitoxantrone-resistant HT29 cells after 1 hr; assay type: functional, cell-based; details: HT-29, 1 h
Homo sapiens = species on record: Homo sapiens; test: Stimulation of human recombinant topoisomerase 1B-mediated SV40 DNA cleavage

For `CC[C@@]1(O)C(=O)OCc2c1cc1n(c2=O)Cc2cc3ccccc3nc2-1` [CAMPTOTHECIN], the IC50 (NCI-H460 [1]) was 0.0062 µM, the IC50 (IGROV-1 [2]) was 1.65 µM and the IC50 (IGROV-1 [3]) was 0.012 µM.
`CC[C@@]1(O)C(=O)OCc2c1cc1n(c2=S)Cc2cc3ccccc3nc2-1` was tested, and the IC50 (NCI-H460 [4]) was 0.14 µM, the IC50 (NCI-H460 [1]) was 0.0074 µM and the IC50 (IGROV-1 [2]) was 0.22 µM. For the same compound, the IC50 (IGROV-1 [3]) was 0.00467 µM, the IC50 (HT-29 [5]) was 0.17 µM and the IC50 (HT-29 [6]) was 0.11 µM. The Activity (Homo sapiens) was “Active”.
